Experimental data: patent US20040077080A1, “Compositions and methods for induction of proteins involved in xenobiotic metabolism” (priority 2000, published 2004)
Like-named read-outs stand apart in the source and are kept apart here.

Columns and labels:
[1] = system: AhR (dioxin response elements); test: DRE12-6 luciferase assay (HepG2 with dioxin response elements)
Experimental: FIG. 25A: DRE12-6 cells were treated for 28 hours with the indicated concentrations of phytochemicals. FIG. 25B: DRE12-6 cells were treated with the indicated chemicals for 3 hours prior to co-treatment with 2,3,7,8-tetrachlorodibenzo-p-dioxin (TCDD) for 28 hours.
Chemical treatment was followed by cell lysis and luciferase measurement.
FIG. 26A: DRE12-6 cells were inoculated into a 96-well plate (2×10^4 cells per well) a day prior to treatment and treated for 28 hours with the indicated concentrations of the environmental contaminants (PAHs, PAH derivatives, PCBs, or pesticide derivatives). FIG. 26B: DRE12-6 cells were treated with the indicated chemicals for 3 hours prior to co-treatment with 2,3,7,8-tetrachlorodibenzo-p-dioxin (TCDD) for 28 hours.
The luciferase-SV40 promoter vector, with the three copies of the dioxin response elements, was transfected into HepG2 cells, which were put under neomycin selection to yield the stable cell line DRE12-6, for detection of AhR-dependent transactivation.
Luciferase assay: Luciferase assays using the LucLite system (Packard Instrument Co., Meriden, Conn.) were performed according to the manufacturer's instructions. Results were expressed as relative light units or fold induction, relative to DMSO-treated control cells. The data represent the mean±standard deviation of experiments performed in duplicate.

[2] = system: CYP1A1 mRNA; test: Northern blot of CYP1A1 in primary human hepatocytes (Example V); conditions: hepatocytes
Description: The isolated RNA was subjected to Northern blot analysis.

[3] = system: PXR / mdr1(dr4) response element; test: Hep-PXR/Pgp-Luc stable cell luciferase assay; conditions: 48 hours; for dose dependence of luciferase induction (in words): Hep-PXR/Pgp-Luc cells; for strength of luciferase induction (in words): Hep-PXR/PgpLuc cells, omeprazole 100 micromoles per liter versus rifampicin 10 micromoles per liter
Experimental: (§1) FIG. 35 depicts dose-response behavior to various PXR activators in stable cell lines overexpressing PXR and harboring DR4 response element. FIG. 35A: Results are shown for the stable cell line Hep-PXR/PgpLuc. FIG. 35B: Results are shown for the stable cell line Caco-PXR/PgpLuc.
(§2) Cells were exposed to the test compounds for 48 hours at the concentrations indicated.
FIG. 36 depicts the effect of environmental and botanical chemicals on luciferase activity in the stable cell line Hep-PXR/PgpLuc. Cells were inoculated into 96-well plates at a density of 2×10^4 cells per well. After overnight recovery, cells were treated with the test compounds at the concentrations indicated for 48 hours.
(§3) Establishment of stable transformants containing both PXR and reporter plasmid and development of high throughput bioassay for PXR-dependent transactivation: The stable transformants Hep-PXR/mdr1(dr4)-Luc and Caco-PXR/mdr1(dr4)-Luc cell lines were generated from the parental cell lines HepG-PXR and Caco-PXR, respectively, according to the following procedure. The parental cell lines HepG-PXR and Caco-PXR, which overexpress PXR, were stably transfected with the luciferase reporter plasmid mdr1(dr4)-Luc. The transfected cells were cultured in DMEM (HepG-PXR cells) or in IMEM (Caco-PXR cells), both media supplemented with 10% fetal bovine serum and neomycin (700 micrograms per milliliter).
(§4) For the induction assay, stable transformants were seeded in 96-wells plates at a density of 1×10^4 cells per well and allowed to recover overnight. Plates were treated with test compounds at varying concentrations, using 3 replicates per dose. After 48 hours of exposure to the test compound, cells were washed with phosphate buffered saline, lysis buffer was applied to the wells, and luciferase substrate added. Following 10 minutes for light adaptation, luminescence was monitored according to the manufacturer's instructions (Packard kit, Biomed).

[4] = system: PXR / mdr1(dr4) response element; test: Caco-PXR/Pgp-Luc stable cell luciferase assay; conditions: Caco-PXR/Pgp-Luc cells, 48 hours
Experimental: as §1, §2, §3, §4

[5] = system: MDR1 P-glycoprotein mRNA; test: Northern blot of MDR1 P-glycoprotein expression (Example VI)
Description: FIG. 31 depicts MDR1 gene expression in LS174T cells as analyzed by Northern blot. […] Total RNA from the colon adenocarcinoma cell line LS174T was isolated and fractionated on a 1% formaldehyde gel and transferred onto a nylon membrane. The RNA blot was hybridized to ^32P-labeled MDR1 cDNA probe (top panel) or 18s rRNA probe for normalization of RNA loading on the gel (bottom panel).
FIG. 32A: Lanes 1 and 2, primary human hepatocytes; lanes 3 and 4, LS174T cells. FIG. 32B: Lanes 1 and 2, HepG2 cells; lanes 3 and 4, HepG2 that overexpress PXR (Hepg-PXR cells). FIG. 32C: Lanes 1 and 2, Caco-2; lanes 3 and 4, Caco-2 cells that overexpress PXR (Caco-PXR cells).
Total RNA from the colon adenocarcinoma cell line LS174T was isolated and fractionated on a 1% formaldehyde gel and transferred onto a nylon membrane. The RNA blot was hybridized to ^32-P-labeled MDR1 cDNA probe (top panels), ^32-P-labeled CYP3A4 cDNA probe (middle panels), or 18s rRNA probe for normalization of RNA loading on the gel (bottom panels).
FIG. 37 depicts MDR1 gene regulation in response to chrysin as studied by Northern blot analysis. […] Total RNA from the hepatocytes was isolated and fractionated on a 1% formaldehyde gel and transferred onto a nylon membrane. The RNA blot was hybridized to ^32-P-labeled MDR1 cDNA probe (top panels), ^32P-labeled CYP3A4 cDNA probe (middle panels), or 18s rRNA probe for normalization of RNA loading on the gel (bottom panels).
Northern Blot analysis for MDR1 P-glycoprotein and CYP3A4 expression: Total RNA was prepared from cells (primary hepatocytes, LS174T, HepG2, or Caco-2) using Trizol reagent (Invitrogen, Carlsbad, Calif.). For Northern blots, 15 micrograms of total RNA was fractionated on a 1% formaldehyde gel and transferred onto a nylon membrane by capillary transfer. A 530-base pair fragment of MDR1 cDNA was obtained from PCR cloning using the sense primer […] The resulting fragment was ^32P-labeled by random priming (Invitrogen, Carlsbad, Calif.) for use as an MDR1 probe. […] All constructs and cDNAs were subjected to sequence analysis. Hybridization was performed with the ExpressHyb system according to the manufacturer's instructions (Clontech, Palo Alto, Calif.).

[6] = system: CYP1A1 mRNA; test: Northern blot of CYP1A1 mRNA in primary cultures of human hepatocytes (Example II); conditions: hepatocytes
Experimental: Six well plates containing human hepatocytes were obtained from the Liver Tissue Procurement and Distribution System (LTPADS, University of Minnesota, Minneapolis, Minn.). […] All inducers were dissolved in DMSO and added to media at a 0.1% final concentration of this reagent. After treatment, media was removed and cells harvested for RNA isolation.
(§5) Total RNA from hepatocytes or HepG2 cells was isolated using Trizol™ reagent (Gibco BRL Products, Gaithersburg, Md.) and quantified by measuring absorbance at 260 nm; purity was assessed by determining the 260/280 nm ratio. […] A cDNA probe for human 18S RNA probe (Ambion, Austin Tex.) was used to normalize the amount of RNA loaded in each lane. […] Autoradiographs of Northern blots were quantified by densitometry using a Model GS-670 Imaging Densitometer equipped with Molecular Analysis/Mac version 1.1.1. Image Analysis software (BioRad laboratories, Hercules, Calif.) or by scaning autoradiograms with a ScanMaker II (Microtek) and digitized with Un-Scan-It software (Silk Scientific, Orem Utah). Exposure times used were in the linear range of the film, Kodak XAR-5.

[7] = system: CYP1A1 mRNA; test: Northern blot of CYP1A1 mRNA in HepG2 cells
Experimental: HepG2 cells were obtained from American Type Culture Collection (ATCC). Cells were grown in DMEM (Gibco/BRL). Twenty-four hours after cells were plated and grown to confluency, they were treated with one of the bioflavonoids, TCDD, or beta-naphthoflavone (Sigma). All inducers were dissolved in DMSO and this solvent was added to control cells at 0.1%.
as §5

[8] = system: PXR / CYP3A4 response elements; test: DPX2 (Hepg-hPXR/3A4-Luc) luciferase assay; conditions: DPX2 cells, 48 hours
Experimental: Compounds tested included known PXR ligands and conventional drugs (FIG. 30A), environmental contaminants (FIG. 30B), and herbal supplements (FIG. 30C). DPX2 cells were cultured with DMEM supplemented with 10% fetal bovine serum and neomycin. Cells were inoculated into 96-well plate at a density of 1×10^4 cells per well the day before treatment.
2. […] In addition, a distal enhancer module, XREM, was amplified by PCR using the sense primer
The resulting amplified XREM fragment was ligated upstream of PXRE containing a 3A4 promoter, into a luciferase vector.
A neomycin resistance gene was generated by PCR amplification using the pcDNA3.1 plasmid (Invitrogen, Carlsbad, Calif.), which encodes a neomycin resistant gene, as a DNA template. The sense primer had the sequence […] Amplification was followed by SalI digestion of the PCR product, and the resulting fragment ligated to the SalI-digested PGL3-promoter plasmid, which contains luciferase as a reporter gene. […] The CYP3A4 cell line DPX2 (Hepg-hPXR/3A4-Luc) was established by double transfection with the PXR expression plasmid and the luciferase plasmid containing CYP3A4 PXR response element under selection with both neomycin and hygromycin.

[9] = system: human CYP1A1 promoter (Ah receptor); test: 101L cell luciferase assay (HepG2 with human CYP1A1 promoter-luciferase), 96-well; conditions: 101L cells, 18 hours; 1 to 20 micromolar (resveratrol 10, apigenin 5, quercetin and curcumin 20 micromolar); GTE 0.1 milligrams/ml
Experimental: Cells were initially seeded in flasks containing media without G418. After an overnight incubation the cultures were changed into media containing G418 for antibiotic selection. After three to five days, cells were removed from flasks by trypsinization and replated on either a twenty-four-well plate at a density of 3.5×10^5 cells per well, or a ninety-six-well plate at a density of 7.5×10^4 cells per well, in DMEM media that was replaced with that containing 0.1% FBS and without G418 or indicator (phenol red). The next day, media containing 0.1% FBS and G418 was added to the cultures. […] For the antagonist experiments, cells were co-treated with a flavonoid and two nanomolar TCDD. All inducers were dissolved in DMSO and this reagent was added to control cells at 0.1%. The cells were treated with varous doses and times (six to eighteen hours). After treatment, the media containing the compound was removed by aspiration and replaced with one-hundred microliters per well of DMEM for direct analysis of luciferase activity. Experiments were performed on 101L cells from frozen stocks on the initial derivation and the passage number was limited to thirty.
Luciferase assays were performed as specified by the manufacturer (LucLite system, Packard Instrument, Meriden, Conn.). Activity was determined using a Packard LumiCount luminometer and results expressed as relative light units or fold increase above control (DMSO treated cells.

[10] = DRE12-6 cells, test compound 3 hours prior to co-treatment with TCDD for 28 hours

## Clc1cc(-c2ccccc2)c(Cl)c(Cl)c1Cl [2,3,4,5 tetrachlorobiphenyl]
[1]; [10]
  effect on TCDD-mediated luciferase induction (in words): effectively inhibited

## Cc1ccc2cc3c(ccc4ccccc43)c3c2c1CC3 [3-MC, 3-methylcholanthrene]
[2]
  CYP1A1 induction by Northern blot (in words): maximum induction
[1]; DRE12-6 cells, 28 hours
  AhR-mediated luciferase induction (in words): dose-dependent increase

## CC#C[C@]1(O)CC[C@H]2[C@@H]3CCC4=CC(=O)CCC4=C3[C@@H](c3ccc(N(C)C)cc3)C[C@@]21C [RU486, mifepristone]
[3]
  dose dependence of luciferase induction (in words): dose-dependent luciferase induction
[4]
  dose dependence of luciferase induction (in words): dose-dependent luciferase induction
  strength of luciferase induction (in words): strongly induce
[5]; LS174T cells, 48 hours
  MDR1 expression in LS174T cells (in words): effectively induced

## C[C@@]12CCC[C@H]1[C@@H]1CC[C@H]3C[C@@H](O)CC[C@]3(C)[C@H]1CC2 [androstanole]
[3]
  dose dependence of luciferase induction (in words): dose-dependent luciferase induction
[4]
  dose dependence of luciferase induction (in words): dose-dependent luciferase induction

## O=c1cc(-c2ccc(O)cc2)oc2cc(O)cc(O)c12 [apigenin]
[6]; human, 24 h
  CYP1A1 mRNA level Subject B (%), normalized to TCDD induction: 0%
  CYP1A1 mRNA level Subject C (%), normalized to benzanthracene induction: 3%
  CYP1A1 mRNA level Subject D (%), normalized to TCDD induction: 0%
[1]
  effect on TCDD-mediated luciferase induction (in words): effectively inhibited
[7]; human
  HepG2 CYP1A1 mRNA (%), normalized to TCDD induction: 1%

## O=c1cc(-c2ccccc2)oc2ccc3ccccc3c12 [beta-naphthoflavone]
[7]
  HepG2 CYP1A1 mRNA (%), normalized to TCDD induction: 50%

## Clc1ccccc1C(c1ccccc1)(c1ccccc1)n1ccnc1 [clotrimazole]
[8]
  luciferase response curve (in words): dose-dependent

## COc1cc(/C=C/C(=O)CC(=O)/C=C/c2ccc(O)c(OC)c2)ccc1O [curcumin]
[6]
  induction of CYP1A1 mRNA in isolated hepatocytes (in words): did not elicit induction

## C[C@@H]1C[C@H]2[C@@H]3CCC4=CC(=O)C=C[C@]4(C)[C@@]3(F)[C@@H](O)C[C@]2(C)[C@@]1(O)C(=O)CO [dexamethasone]
[3]
  dose dependence of luciferase induction (in words): dose-dependent luciferase induction
  strength of luciferase induction (in words): Weaker luciferase induction
[4]
  dose dependence of luciferase induction (in words): dose-dependent luciferase induction

## O=c1c(O)c(-c2ccc(O)cc2)oc2cc(O)cc(O)c12 [kaempferol]
[6]; human, 24 h
  CYP1A1 mRNA level Subject B (%), normalized to TCDD induction: 0%
  CYP1A1 mRNA level Subject C (%), normalized to benzanthracene induction: 10%
  CYP1A1 mRNA level Subject D (%), normalized to TCDD induction: 0%
[1]
  effect on TCDD-mediated luciferase induction (in words): effectively inhibited

## COc1ccc(C(c2ccc(OC)cc2)C(Cl)(Cl)Cl)cc1 [methoxychlor]
[8]
  luciferase response curve (in words): dose-dependent
[1]; [10]
  effect on TCDD-mediated luciferase induction (in words): effectively inhibited
[3]
  strength of luciferase induction (in words): strongly induced

## O=C1C[C@@H](c2ccc(O)cc2)Oc2cc(O)cc(O)c21 [naringenin]
[6]; human, 24 h
  CYP1A1 mRNA level Subject D (%), normalized to TCDD induction: 0%
[7]; human
  HepG2 CYP1A1 mRNA (%), normalized to TCDD induction: 0%

## O=c1c(O)c(-c2ccc(O)c(O)c2)oc2cc(O)cc(O)c12 [quercetin]
[6]
  induction of CYP1A1 mRNA in isolated hepatocytes (in words): did not elicit induction
[1]
  effect on TCDD-mediated luciferase induction (in words): effectively inhibited

## Oc1ccc(C=Cc2cc(O)cc(O)c2)cc1 [resveratrol]
[6]; human, 24 h
  CYP1A1 mRNA level Subject A (%), normalized to TCDD induction: 5%
  CYP1A1 mRNA level Subject B (%), normalized to TCDD induction: 0%
  CYP1A1 mRNA level Subject C (%), normalized to benzanthracene induction: 12%
  CYP1A1 mRNA level Subject D (%), normalized to TCDD induction: 0%
[7]; human
  HepG2 CYP1A1 mRNA (%), normalized to TCDD induction: 12%

## CO[C@H]1/C=C/O[C@@]2(C)Oc3c(C)c(O)c4c(O)c(c(/C=N/N5CCN(C)CC5)c(O)c4c3C2=O)NC(=O)/C(C)=C\C=C\[C@H](C)[C@H](O)[C@@H](C)[C@@H](O)[C@@H](C)[C@H](OC(C)=O)[C@@H]1C [rifampicin]
[5]; human
  MDR1 P-glycoprotein expression in Hep-PXR stable cells (in words): did not induce MDR1 P-glycoprotein expression further

## (−)-epigallocatechin gallate [EGCG]
[9]
  fold induction of CYP1A1-promoter-mediated luciferase activity by flavonoids: negligible effects
